The test is described as follows: In vivo CT of filler nodule volume, density and 3D shape after test solutions 0-8 (Example 3). Conditions: for Change in Volume as percent of Injected Volume, Day 14/15: Example 3 (Day 14); for Change in Volume as percent of Injected Volume, Day 14/15 / Change in Volume as percent of Injected Volume, Day 0 + 2 h / Change in Volume as percent of Injected Volume, Day 0 + 4 h / Change in Volume as percent of Injected Volume, Day 1 / Change in Volume as percent of Injected Volume, Day 3 / Change in Volume as percent of Injected Volume, Day 7 / Change in Volume as percent of Injected Volume, Day 0 + 1 h 15: mean; for Change in Volume as percent of Injected Volume, Day 0 + 2 h / Change in Volume as percent of Injected Volume, Day 0 + 4 h / Change in Volume as percent of Injected Volume, Day 1 / Change in Volume as percent of Injected Volume, Day 3 / Change in Volume as percent of Injected Volume, Day 7 / Change in Volume as percent of Injected Volume, Day 0 + 1 h 15: Example 3; for Change in Volume as percent of Injected Volume, Day 0 + 1 h 15: 1.5 mL solution into 500 μl nodule; for effect on volume at the filler injection site: after 7 and 14 days, vs untreated. As to the method:
One hour after filler injections (T=1 h), 1.5 mL of selected solutions (Table 5, solutions 0-8, test items, solution 0 is normal saline and not hyperosmotic) were injected each into 9 dermal filler nodules in the right flank (ventral area).
A total of 7 CT-scans were performed at 1 h 15, 2 h, 4 h, 1 day (24 h), 3, 7 and 14 days after injection of the dermal filler. The clinical state of each animal is assessed once a week by body weight measurement and clinical observations.
The 10 SC injections of dermal filler on Day 0 were performed in the ventral area, (five nodules on each flank of the ventral area) for each pig. For each SC nodule, a theoretical volume of 500 μl was administered. One hour (±5 min) after injection of dermal filler, SC injection of the different solutions (prepared the day before) were performed into nine (9) nodules of dermal. For each SC nodule, a theoretical volume of 1.5 mL of test solution was administered.
The X-ray computed tomography acquisitions were performed with the Computed Tomography Scanner BrightSpeed 16 (General Electric). In order to measure the volume and the mean density and to visualize the 3D shape of the dermal filler (Radiesse® filler with or without test solution) injected, in vivo CT-scans were performed on Day 0: 1 h 15 (±10 min), 2 h (±15 min) and 4 h (±20 min), on Day 1 (24 h+1 h), Day 3, Day 7 and Day 14.
During CT acquisition on Day 0, the pigs received an IM injection of anesthesia. The animals were maintained under anesthesia until the CT acquisition at T=2 h (2 h after dermal filler injection session). Between these CT acquisitions, the animals were under surveillance in the recovery room on a heating mat with fluidotherapy. At the end of the CT acquisition at T=2 h, the pigs received a tattoo around each injected site. During the CT acquisitions at T=4 h and on Days 1, 3, 7 and 14, pigs received an IM injection of anesthesia. For the CT-scans, animals were positioned in dorsal recumbency and acquisitions were centered on the injection sites. The parameters of the CT-scan are described in Table 5.
The CT acquisition was analyzed with the software Avizo version 9.2.0. The objective of this analysis was to assess the degradation over time of the dermal filler injected by SC route after injection of different test solutions.
An image segmentation processing was performed on each CT acquisition. First, a manual pre-segmentation was performed around each nodule in order to roughly isolate the voxels corresponding to dermal filler product, which defined a Region of Interest (ROI). Second, an automatic segmentation was applied on the previously defined ROI using a global grey level thresholding procedure.
On day 0, a farm pig received ten (10) SC injections of Radiesse® dermal filler 0.5 mL (ventral area) (10 nodules in total). One hour after filler injections (T=1 h), 1.5 mL of one of eight test hyperosmotic solutions (1-8 solutions, Table 5) was injected at an injection site. One injection site was untreated and one injection site was treated with normal saline (0.9% wt/v NaCl).

The mark [1] stands for this setting: listed as Hyperosmotic Saline (sol 1).

Marks after values point to notes of the source that are not given here.

Take `CC(=O)[O-].[Na+]` [sol 3, Sodium acetate]: the “Change in Volume as percent of Injected Volume, Day 14/15” value (shortened to “Change in Volume as percent … Day 14/15”) was 176.61* percent; the “Change in Volume as percent of Injected Volume, Day 0 + 2 h” value (“Change in Volume as percent … Day 0 + 2 h” below) was determined as 154.89%; the “Change in Volume as percent of Injected Volume, Day 0 + 4 h” value (“Change in Volume as percent … Day 0 + 4 h” below) was 165.88%; the “Change in Volume as percent of Injected Volume, Day 1” value is recorded as 202.12%. Further, the “Change in Volume as percent of Injected Volume, Day 3” value (“Change in Volume as percent … Day 3” below) was 197.50* percent; the “Change in Volume as percent of Injected Volume, Day 7” value (from here on “Change in Volume as percent … Day 7”) is 189.13* percent; the “Change in Volume as percent of Injected Volume, Day 0 + 1 h 15” value stood at 152.73%.

As for `O.O.O.O.O.O.O.O=S(=O)([O-])[O-].[Mg+2]` [sol 5, Magnesium sulfate heptahydrate], the “Change in Volume as percent … Day 14/15” value was found to be 186.95%; the “Change in Volume as percent … Day 0 + 2 h” value is listed as 159.33%; the “Change in Volume as percent … Day 0 + 4 h” value is recorded as 158.84* percent; the “Change in Volume as percent of Injected Volume, Day 1” value is on record as 188.43%. Also, the “Change in Volume as percent … Day 3” value is listed as 206.26* percent; the “Change in Volume as percent … Day 7” value came to 202.32%; the “Change in Volume as percent of Injected Volume, Day 0 + 1 h 15” value is recorded as 170.49* percent.

With `O.O.O=P([O-])(O)O.[Na+]` [sol 2, Sodium dihydrogen phosphate dihydrate], the “Change in Volume as percent … Day 14/15” value is listed as 179.72* percent; the “Change in Volume as percent … Day 0 + 2 h” value is reported as 151.58%; the “Change in Volume as percent … Day 0 + 4 h” value came out at 164.27%; the “Change in Volume as percent of Injected Volume, Day 1” value is recorded as 198.42%. Besides, the “Change in Volume as percent … Day 3” value came out at 201.11%; the “Change in Volume as percent … Day 7” value is listed as 201.97%; the “Change in Volume as percent of Injected Volume, Day 0 + 1 h 15” value turned out to be 156.57%.

As to `[Cl-].[Na+]` [sol 1, Sodium chloride], under setting [1], the “Change in Volume as percent … Day 14/15” value is 175.89* percent; the “Change in Volume as percent of Injected Volume, Day 0 + 1 h 15” value is 161.28* percent; the “Change in Volume as percent … Day 0 + 2 h” value stood at 157.58%; the “Change in Volume as percent … Day 0 + 4 h” value was 164.59* percent. For the same molecule, under setting [1], the “Change in Volume as percent of Injected Volume, Day 1” value is on record as 202.75%; the “Change in Volume as percent … Day 3” value was determined as 199.27%; the “Change in Volume as percent … Day 7” value is listed as 192.06* percent. Besides, under “listed as hyperosmotic NaCl”, the “effect on volume at the filler injection site” value is given as “significant decreased volume”.

Regarding `OCC(O)CO` [sol 6, Glycerol], the “Change in Volume as percent … Day 14/15” value is listed as 173.93* percent; the “Change in Volume as percent … Day 0 + 2 h” value amounted to 156.43%; the “Change in Volume as percent … Day 0 + 4 h” value is on record as 184.92%; the “Change in Volume as percent of Injected Volume, Day 1” value amounted to 200.32%. In addition, the “Change in Volume as percent … Day 3” value was 197.65* percent; the “Change in Volume as percent … Day 7” value was 197.62* percent; the “Change in Volume as percent of Injected Volume, Day 0 + 1 h 15” value came out at 151.48%.

For `OC[C@H]1O[C@@](CO)(O[C@H]2O[C@H](CO)[C@@H](O)[C@H](O)[C@H]2O)[C@@H](O)[C@@H]1O` [sol 8, Sucrose], the “Change in Volume as percent … Day 14/15” value came to 180.45%; the “Change in Volume as percent … Day 0 + 2 h” value is 167.63%; the “Change in Volume as percent … Day 0 + 4 h” value came to 190.95%; the “Change in Volume as percent of Injected Volume, Day 1” value came to 202.96%. The “Change in Volume as percent … Day 3” value was determined as 207.85%; the “Change in Volume as percent … Day 7” value is 199.72%; the “Change in Volume as percent of Injected Volume, Day 0 + 1 h 15” value is listed as 167.87* percent; the “effect on volume at the filler injection site” value is given as “trend to decrease volume of filler”.

For the origin of these results see US12239661B2, “Methods and compositions for treating undesired implanted tissue filler” (priority 2019, dated 2025).
